Measurements: patent US12157741B2, “Macrocyclic inhibitors of DYRK1A” (DANA-FARBER CANCER INSTITUTE, INC., priority 2018, dated 2024)
Like-named read-outs stand apart in the source and are kept apart here.

Tests used:
various enzymes [1] = molecular target: T1, various enzymes (Homo sapiens, UniProt O75385); settings: ULK1; 1 uM
T1 sequence (O75385 1-1050): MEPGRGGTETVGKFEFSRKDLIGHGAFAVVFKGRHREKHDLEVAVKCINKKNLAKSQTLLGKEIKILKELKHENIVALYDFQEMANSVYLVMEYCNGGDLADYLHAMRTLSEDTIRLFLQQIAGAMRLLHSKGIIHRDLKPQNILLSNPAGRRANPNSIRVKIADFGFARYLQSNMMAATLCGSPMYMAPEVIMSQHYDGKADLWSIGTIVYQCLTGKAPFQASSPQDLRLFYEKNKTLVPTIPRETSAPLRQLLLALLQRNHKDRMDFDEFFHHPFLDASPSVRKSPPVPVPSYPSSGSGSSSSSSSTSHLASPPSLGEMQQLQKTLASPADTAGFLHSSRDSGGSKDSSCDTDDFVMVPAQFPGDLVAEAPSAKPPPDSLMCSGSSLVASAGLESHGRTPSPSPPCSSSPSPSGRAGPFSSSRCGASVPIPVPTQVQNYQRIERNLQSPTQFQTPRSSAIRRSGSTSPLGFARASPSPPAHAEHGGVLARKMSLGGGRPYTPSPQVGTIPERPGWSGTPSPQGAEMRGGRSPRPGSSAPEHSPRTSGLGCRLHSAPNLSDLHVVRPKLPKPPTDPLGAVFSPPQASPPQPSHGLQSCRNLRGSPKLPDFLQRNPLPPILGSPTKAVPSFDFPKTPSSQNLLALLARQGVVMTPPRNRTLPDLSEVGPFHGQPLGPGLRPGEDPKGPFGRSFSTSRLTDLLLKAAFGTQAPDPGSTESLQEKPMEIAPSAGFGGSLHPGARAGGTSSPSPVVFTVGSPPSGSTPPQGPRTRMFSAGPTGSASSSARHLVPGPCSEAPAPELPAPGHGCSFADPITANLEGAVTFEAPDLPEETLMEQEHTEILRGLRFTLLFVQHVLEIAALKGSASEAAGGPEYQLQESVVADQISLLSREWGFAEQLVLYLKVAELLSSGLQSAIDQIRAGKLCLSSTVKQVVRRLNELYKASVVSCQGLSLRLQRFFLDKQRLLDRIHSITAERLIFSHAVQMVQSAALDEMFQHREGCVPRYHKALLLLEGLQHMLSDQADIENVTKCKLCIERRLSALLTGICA
Experimental: (§2) Ambit profiling from Eurofins (formerly Discoverx) was conducted in accordance with the manufacturer's instructions.

various enzymes [2] = molecular target: various enzymes (Homo sapiens, UniProt P00533, L858R/T790M)
Experimental: as §2

various enzymes [3] = molecular target: various enzymes (Homo sapiens, UniProt O94804); settings: LOK; 1 uM
Experimental: as §2

various enzymes [4] = molecular target: various enzymes (Homo sapiens, UniProt O60331); settings: PIP5K1C; 1 uM
Experimental: as §2

various enzymes [5] = molecular target: T2, various enzymes (Homo sapiens, UniProt P00533, DEL747-752/P753S)
Experimental: as §2

various enzymes [6] = molecular target: various enzymes (Homo sapiens, UniProt P08581, M1250T)
Experimental: as §2

various enzymes [7] = molecular target: various enzymes (Homo sapiens, UniProt P00533, DEL746-750); settings: EGFR(E746-A750del); 1 uM
Experimental: as §2

various enzymes [8] = molecular target: various enzymes (Homo sapiens, UniProt P24941); settings: CDK2; 1 uM
Experimental: as §2

various enzymes [9] = molecular target: various enzymes (Homo sapiens, UniProt O94921); settings: PFTK1; 1 uM
Experimental: as §2

various enzymes [10] = molecular target: various enzymes (Homo sapiens, UniProt O95819); assay type: binding; settings: compound 1 uM
various enzymes (Homo sapiens, UniProt O95819), sequence (O95819 whole entry): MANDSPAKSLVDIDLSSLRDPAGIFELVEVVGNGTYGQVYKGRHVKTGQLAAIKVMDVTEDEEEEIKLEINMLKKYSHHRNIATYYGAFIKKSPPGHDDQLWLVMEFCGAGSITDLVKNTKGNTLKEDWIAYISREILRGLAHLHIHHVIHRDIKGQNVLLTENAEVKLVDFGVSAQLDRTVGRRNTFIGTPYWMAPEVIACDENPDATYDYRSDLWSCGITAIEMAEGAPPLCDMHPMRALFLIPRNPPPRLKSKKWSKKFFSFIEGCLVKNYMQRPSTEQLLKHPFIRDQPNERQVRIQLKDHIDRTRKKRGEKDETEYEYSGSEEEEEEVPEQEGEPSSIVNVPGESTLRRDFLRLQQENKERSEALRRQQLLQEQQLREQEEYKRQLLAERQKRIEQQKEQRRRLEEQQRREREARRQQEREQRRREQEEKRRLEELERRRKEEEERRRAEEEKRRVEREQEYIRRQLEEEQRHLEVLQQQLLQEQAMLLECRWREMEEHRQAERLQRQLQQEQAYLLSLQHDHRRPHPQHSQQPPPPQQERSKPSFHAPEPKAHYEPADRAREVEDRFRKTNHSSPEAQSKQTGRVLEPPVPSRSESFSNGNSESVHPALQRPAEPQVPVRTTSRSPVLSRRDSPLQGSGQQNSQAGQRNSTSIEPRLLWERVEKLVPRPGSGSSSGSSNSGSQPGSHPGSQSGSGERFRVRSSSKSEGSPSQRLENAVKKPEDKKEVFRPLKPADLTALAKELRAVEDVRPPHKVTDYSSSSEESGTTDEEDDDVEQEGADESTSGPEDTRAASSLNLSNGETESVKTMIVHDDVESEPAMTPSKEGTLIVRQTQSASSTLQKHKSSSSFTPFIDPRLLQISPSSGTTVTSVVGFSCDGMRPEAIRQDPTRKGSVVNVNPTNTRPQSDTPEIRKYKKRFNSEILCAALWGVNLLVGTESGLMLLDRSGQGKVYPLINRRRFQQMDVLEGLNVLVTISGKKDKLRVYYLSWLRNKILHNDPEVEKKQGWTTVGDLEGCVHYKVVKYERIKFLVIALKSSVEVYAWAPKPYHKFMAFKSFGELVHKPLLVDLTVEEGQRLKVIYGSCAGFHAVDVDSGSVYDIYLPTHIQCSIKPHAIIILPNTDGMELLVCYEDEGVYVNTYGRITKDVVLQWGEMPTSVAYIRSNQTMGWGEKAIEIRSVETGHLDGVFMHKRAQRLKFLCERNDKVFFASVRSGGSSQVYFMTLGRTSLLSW
Experimental: (§1) Ambit profiling was conducted in accordance with the manufacturer's instructions.

various enzymes [11] = molecular target: various enzymes (Homo sapiens, UniProt Q96NX5); assay type: binding; settings: compound 1 uM
various enzymes (Homo sapiens, UniProt Q96NX5), sequence (Q96NX5 whole entry): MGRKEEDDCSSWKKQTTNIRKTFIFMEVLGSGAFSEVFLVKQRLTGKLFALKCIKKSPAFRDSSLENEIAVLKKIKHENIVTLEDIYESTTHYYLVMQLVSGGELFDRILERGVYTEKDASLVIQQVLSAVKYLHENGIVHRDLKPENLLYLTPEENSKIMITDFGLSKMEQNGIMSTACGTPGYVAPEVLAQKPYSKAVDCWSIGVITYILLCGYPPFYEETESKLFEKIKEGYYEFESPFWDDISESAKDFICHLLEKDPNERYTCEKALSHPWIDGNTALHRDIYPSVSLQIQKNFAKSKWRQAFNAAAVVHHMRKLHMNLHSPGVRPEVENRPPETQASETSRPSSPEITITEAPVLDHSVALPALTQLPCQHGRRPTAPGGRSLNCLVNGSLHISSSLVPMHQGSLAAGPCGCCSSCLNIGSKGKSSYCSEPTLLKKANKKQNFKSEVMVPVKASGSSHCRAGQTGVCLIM
Experimental: as §1

various enzymes [12] = molecular target: various enzymes (Homo sapiens, UniProt O00238); assay type: binding; settings: compound 1 uM
various enzymes (Homo sapiens, UniProt O00238), sequence (O00238 14-502): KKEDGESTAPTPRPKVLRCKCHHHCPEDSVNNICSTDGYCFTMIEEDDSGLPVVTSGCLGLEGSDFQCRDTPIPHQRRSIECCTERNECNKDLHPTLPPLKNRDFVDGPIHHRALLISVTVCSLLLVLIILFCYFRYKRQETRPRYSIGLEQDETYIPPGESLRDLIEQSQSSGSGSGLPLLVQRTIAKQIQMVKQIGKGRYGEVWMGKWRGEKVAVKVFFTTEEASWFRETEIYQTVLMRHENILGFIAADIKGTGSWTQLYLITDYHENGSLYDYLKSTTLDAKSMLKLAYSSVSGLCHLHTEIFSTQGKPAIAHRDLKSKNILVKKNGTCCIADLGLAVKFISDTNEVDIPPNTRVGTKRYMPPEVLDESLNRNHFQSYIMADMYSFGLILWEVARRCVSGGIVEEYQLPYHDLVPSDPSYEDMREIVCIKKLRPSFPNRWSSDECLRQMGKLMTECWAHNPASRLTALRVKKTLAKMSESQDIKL
Experimental: as §1

various enzymes [13] = molecular target: various enzymes (Homo sapiens, UniProt Q9UBF8); assay type: binding; settings: compound 1 uM
Experimental: as §1

various enzymes [14] = molecular target: various enzymes (Homo sapiens, UniProt Q8IY84); assay type: binding; settings: compound 1 uM
various enzymes (Homo sapiens, UniProt Q8IY84), sequence (Q8IY84 whole entry): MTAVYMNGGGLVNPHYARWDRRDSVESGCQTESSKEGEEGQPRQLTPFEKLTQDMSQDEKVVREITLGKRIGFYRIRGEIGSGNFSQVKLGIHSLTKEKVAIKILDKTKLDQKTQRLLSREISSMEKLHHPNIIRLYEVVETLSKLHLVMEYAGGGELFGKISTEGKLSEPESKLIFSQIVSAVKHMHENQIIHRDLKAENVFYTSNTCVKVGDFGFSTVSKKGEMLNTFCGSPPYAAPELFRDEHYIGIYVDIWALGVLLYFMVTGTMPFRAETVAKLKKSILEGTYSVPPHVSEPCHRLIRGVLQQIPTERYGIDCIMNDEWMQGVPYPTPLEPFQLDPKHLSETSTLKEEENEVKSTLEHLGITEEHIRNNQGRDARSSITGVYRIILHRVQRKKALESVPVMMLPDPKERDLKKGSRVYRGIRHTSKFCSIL
Experimental: as §1

various enzymes [15] = molecular target: various enzymes (Homo sapiens, UniProt P33981); assay type: binding; settings: compound 1 uM
Experimental: as §1

various enzymes [16] = molecular target: various enzymes (Homo sapiens, UniProt P29320); assay type: binding; settings: compound 1 uM
various enzymes (Homo sapiens, UniProt P29320), sequence (P29320 21-983): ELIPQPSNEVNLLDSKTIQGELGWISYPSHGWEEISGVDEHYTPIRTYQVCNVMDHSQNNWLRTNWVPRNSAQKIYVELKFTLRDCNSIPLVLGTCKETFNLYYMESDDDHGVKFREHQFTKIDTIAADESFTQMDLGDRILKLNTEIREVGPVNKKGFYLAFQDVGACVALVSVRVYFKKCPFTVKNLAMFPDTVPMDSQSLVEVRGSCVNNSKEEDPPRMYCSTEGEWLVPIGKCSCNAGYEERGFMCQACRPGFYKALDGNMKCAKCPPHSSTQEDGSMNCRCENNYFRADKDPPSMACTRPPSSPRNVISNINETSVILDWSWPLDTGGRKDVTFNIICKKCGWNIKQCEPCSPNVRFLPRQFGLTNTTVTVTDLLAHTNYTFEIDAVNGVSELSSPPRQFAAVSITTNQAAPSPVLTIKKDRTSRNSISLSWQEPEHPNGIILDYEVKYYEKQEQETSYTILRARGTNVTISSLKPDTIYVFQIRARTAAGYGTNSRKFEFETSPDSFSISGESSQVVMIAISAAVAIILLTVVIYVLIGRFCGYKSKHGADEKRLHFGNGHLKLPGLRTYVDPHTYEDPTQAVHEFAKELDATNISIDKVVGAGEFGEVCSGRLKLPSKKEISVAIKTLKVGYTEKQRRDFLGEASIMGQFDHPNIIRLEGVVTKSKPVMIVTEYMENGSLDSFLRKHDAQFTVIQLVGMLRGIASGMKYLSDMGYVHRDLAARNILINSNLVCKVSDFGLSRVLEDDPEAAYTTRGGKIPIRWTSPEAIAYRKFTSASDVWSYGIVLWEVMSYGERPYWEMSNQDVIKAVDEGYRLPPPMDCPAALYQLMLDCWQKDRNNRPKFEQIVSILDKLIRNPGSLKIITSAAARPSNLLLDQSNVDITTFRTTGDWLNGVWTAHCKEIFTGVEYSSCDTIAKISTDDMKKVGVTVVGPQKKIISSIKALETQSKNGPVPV
Experimental: as §1

various enzymes [17] = molecular target: various enzymes (Homo sapiens, UniProt P53667); assay type: binding; settings: compound 1 uM
Experimental: as §1

various enzymes [18] = molecular target: various enzymes (Homo sapiens, UniProt P51813); assay type: binding; settings: compound 1 uM
various enzymes (Homo sapiens, UniProt P51813), sequence (P51813 whole entry): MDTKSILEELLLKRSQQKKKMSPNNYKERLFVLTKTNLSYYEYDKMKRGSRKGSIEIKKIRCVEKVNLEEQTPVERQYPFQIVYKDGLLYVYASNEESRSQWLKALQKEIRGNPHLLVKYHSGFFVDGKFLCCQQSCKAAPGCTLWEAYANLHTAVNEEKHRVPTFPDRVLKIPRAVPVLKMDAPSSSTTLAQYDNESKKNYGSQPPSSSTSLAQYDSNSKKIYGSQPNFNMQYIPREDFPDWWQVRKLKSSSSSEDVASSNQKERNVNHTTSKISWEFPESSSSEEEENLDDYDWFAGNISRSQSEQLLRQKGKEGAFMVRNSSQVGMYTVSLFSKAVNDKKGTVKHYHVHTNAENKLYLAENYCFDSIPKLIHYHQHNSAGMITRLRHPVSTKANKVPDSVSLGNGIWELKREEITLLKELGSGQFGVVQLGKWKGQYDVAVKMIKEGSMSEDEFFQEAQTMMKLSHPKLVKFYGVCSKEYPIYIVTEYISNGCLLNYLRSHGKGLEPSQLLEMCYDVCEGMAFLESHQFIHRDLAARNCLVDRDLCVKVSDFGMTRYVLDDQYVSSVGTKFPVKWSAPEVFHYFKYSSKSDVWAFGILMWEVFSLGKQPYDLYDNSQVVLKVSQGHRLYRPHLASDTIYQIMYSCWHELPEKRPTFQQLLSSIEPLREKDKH
Experimental: as §1

various enzymes [19] = molecular target: various enzymes (Homo sapiens, UniProt Q13188); assay type: binding; settings: compound 1 uM
various enzymes (Homo sapiens, UniProt Q13188), sequence (Q13188 whole entry): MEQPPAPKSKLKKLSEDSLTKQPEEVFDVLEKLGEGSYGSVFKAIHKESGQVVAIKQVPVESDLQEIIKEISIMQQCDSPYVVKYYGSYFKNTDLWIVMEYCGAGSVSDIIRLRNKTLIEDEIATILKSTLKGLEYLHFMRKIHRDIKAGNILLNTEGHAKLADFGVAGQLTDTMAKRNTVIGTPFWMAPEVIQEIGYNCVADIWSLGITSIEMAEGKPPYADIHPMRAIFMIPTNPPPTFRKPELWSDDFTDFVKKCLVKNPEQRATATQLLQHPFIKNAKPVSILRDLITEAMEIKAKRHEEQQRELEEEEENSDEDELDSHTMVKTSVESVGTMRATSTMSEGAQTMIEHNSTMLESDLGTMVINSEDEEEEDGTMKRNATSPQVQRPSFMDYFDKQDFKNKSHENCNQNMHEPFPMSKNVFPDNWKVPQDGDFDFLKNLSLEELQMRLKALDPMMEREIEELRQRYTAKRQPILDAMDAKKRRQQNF
Experimental: as §1

various enzymes [20] = molecular target: various enzymes (Homo sapiens, UniProt P00533, DEL747-749/A750P); assay type: binding; design: other: EGFR(L747-E749del, A750); 1 uM; other: EGFR(L747-E749del, A750P); other: compound 1 uM
Experimental: as §1

various enzymes [21] = molecular target: various enzymes (Homo sapiens, UniProt P00533, DELINS747-751S); assay type: binding; design: other: EGFR(L747-T751del, Sins); 1 uM; other: compound 1 uM; settings: compound 1 uM
Experimental: as §1

various enzymes [22] = molecular target: T2, various enzymes; assay type: binding; design: other: EGFR(L747-S752del, P753S); 1 uM; other: compound 1 uM
Experimental: as §1

Structure (SMILES)	Ambit profiling (various enzymes [1])	Ambit profiling (various enzymes [3])	Ambit profiling (various enzymes [4])	Ambit profiling (various enzymes [7])	Ambit profiling (various enzymes [8])	Ambit profiling (various enzymes [9])	Ambit profiling: MAP4K4 (various enzymes [10])	Ambit profiling: CAMK1G (various enzymes [11])	Ambit profiling: BMPR1B (various enzymes [12])	Ambit profiling: PIK4CB (various enzymes [13])	Ambit profiling: NIM1 (various enzymes [14])	Ambit profiling: TTK (various enzymes [15])	Ambit profiling: EPHA3 (various enzymes [16])	Ambit profiling: LIMK1 (various enzymes [17])	Ambit profiling: BMX (various enzymes [18])	Ambit profiling: MST2 (various enzymes [19])	Ambit profiling: EGFR(L747-T751del, Sins) (various enzymes [21])	also measured
CN1Cc2nn(C)cc2-c2cnc3[nH]cc(c3c2)-c2cnn(c2)CCCC1=O [Compound 41, (Z)-31,5-dimethyl-11H,21H,31H-5-aza-2(3,5)-pyrrolo[2,3-b]pyridina-1(4,1),3(4,3)-dipyrazolacyclononaphan-6-one]	22	74	20	100	55	69	–	–	–	–	–	–	–	–	–	–	–	Ambit profiling (various enzymes [2]; EGFR(L858R, T790M), 1 uM): 14; Ambit profiling (various enzymes [5]; EGFR(L747-S752del, P753S), 1 uM): 100; Ambit profiling (various enzymes [6]; MET(M1250T), 1 uM): 20
CC(C)N1Cc2nn(C)cc2-c2cnc3[nH]cc(c3c2)-c2cn(nc2C(F)(F)F)CCCC1=O [Compound 45, (Z)-5-isopropyl-31-methyl-13-(trifluoromethyl)-11H,21H,31H-5-aza-2(3,5)-pyrrolo[2,3-b]pyridina-1(4,1),3(4,3)-dipyrazolacyclononaphan-6-one]	–	–	–	–	–	–	3.5	88	6.8	99	100	20	32	93	35	0	31	Ambit profiling: EGFR(L747-E749del, A750P) (various enzymes [20]; compound 1 uM): 10; Ambit profiling: EGFR(L747-S752del, P753S) (various enzymes [22]; compound 1 uM): 15
CN1Cc2nn(C)c(C#N)c2-c2cnc3[nH]cc(c3c2)-c2cn(nc2C(F)(F)F)CCCC1=O [Compound 48, (Z)-31,5-dimethyl-6-oxo-13-(trifluoromethyl)-11H,21H,31H-5-aza-2(3,5)-pyrrolo[2,3-b]pyridina-1(4,1),3(4,3)-dipyrazolacyclononaphane-35-carbonitrile]	100	52	38	35	91	91	–	–	–	–	–	–	–	–	–	–	–	Ambit profiling (various enzymes [2]): 50; Ambit profiling (various enzymes [5]): 74; Ambit profiling (various enzymes [6]): 75
COc1c2c(nn1C)CN(C(C)C)C(=O)CCCn1cc(c(C(F)(F)F)n1)-c1c[nH]c3ncc-2cc13 [Compound 50, (Z)-5-isopropyl-35-methoxy-31-methyl-13-(trifluoromethyl)-11H,21H,31H-5-aza-2(3,5)-pyrrolo[2,3-b]pyridina-1(4,1),3(4,3)-dipyrazolacyclononaphan-6-one]	–	–	–	–	–	–	3	54	5.1	31	100	23	45	91	24	3.1	22	Ambit profiling: EGFR(L747-E749del, A750P) (various enzymes [20]): 3.1; Ambit profiling: EGFR(L747-S752del, P753S) (various enzymes [22]): 14
